Reference: US12594255B2, “Lipids with odd number of carbon atoms and their use as pharmaceutical composition or nutritional supplement” (SunRegen Healthcare AG, priority 2016, dated 2026)
Several values for one entry are separate records, joined by “and”; a condition that tells them apart may be missing. Equal values may be shown once.

Tests used:
Type in all cases: cell-based
[1] = system: mouse primary cortical neurons challenged with Aβ1-42 oligomers (AβO); experiment: AβO-induced neurotoxicity, 48-h pre-incubation with test item, MTT assay; conditions: for Neuroprotection (0.01 μM) / Neuroprotection (0.1 μM): added 48 hours before 1 μM AβO; for neuroprotective effect: 1 μM, 48-h preincubation before 1 μM AβO
Experimental: Mouse primary cortical neurons were pre-incubated for 48 h with vehicle, 0.05 μM DHA (used as positive control) or different concentrations of Compound C. Then, cortical neurons were treated for 24 h with vehicle (FIG. 1 left) or 1 μM AβO ([…]) and cell viability was determined using the MTT assay (n=3 determinations per condition, 1 independent experiment), Data are represented as % of vehicle control (Mean*SD). […]
(§1) Cortical neurons from embryonic day 16-17 are prepared from C57BL6/J mouse fetuses. In brief, dissociated cortical cells were plated (50.000 cells/well) in 48-well plates pre-coated with 1.5 μg/mL polyornithine (Sigma). Cells were cultured in a chemically defined Dulbecco's modified eagle's/F12 medium free of serum and supplemented with hormones, proteins and salts. Cultures were kept at 35° C. in a humidified 6% CO2 atmosphere. Mouse cortical neurons were exposed for 24 h to 1.0 μM AβO after a 48-h pre-incubation with vehicle or different concentrations of Compound C. The AβO-induced neurotoxicity was evaluated using the MTT assay.
All treatments were done in triplicates in 48-well plates. Cells were incubated with vehicle or 1 μM AβO in the absence or presence of different lipids at the indicated final concentrations) added at 48 hours before ADO. Cells were incubated with AβO for 24 h in a final volume of 140 μL per well.
For positive controls, cells are treated similarly (48 hours before AβO) in the presence of 0.05 μM DHA.
Following AβO-treatment, cell viability was measured using the MTT assay. Briefly, cells were incubated at 35° C. for 1 h with MTT (Sigma, Cat #M2128-10G. Lot #MKBH7489V). For that purpose, 14 μL of 5 mg/mL MITT (solubilized in PBS) were added in each well. After incubation, medium was removed and cells were lyzed with 150 μL DMSO for 10 minutes and protected from light. After complete solubilization of formazan, absorbance at 570 nm was recorded.
as §1, with “cells are” for “cells were”, “Cells are” for “Cells were”, “Cultures are” for “Cultures were”, “of herb B extracts.” for “of Compound C.”, “assay. […]” for “assay.”

[2] = system: mouse primary cortical neurons treated with 0.25 mM H2O2; experiment: H2O2-induced neurotoxicity, test item added 48 hours before or 3 hours after H2O2, MTT assay
[3] = system: mouse primary cortical neurons; experiment: Axonal growth (MAP2 immunolabelling, axonal length); conditions: 60 nM sAPPα; vehicle control 165.96±90.18 μm
Experimental: Mouse primary cortical neurons were pre-incubated for 48 h with vehicle, 60 nM sAPPα (used as positive control) or different concentrations of Compound C. Then, cortical neurons were treated for 24 h with vehicle. Data are represented as % of vehicle control (Mean±SD).
Cortical neurons from embryonic day 16-17 are prepared from C57Bl6/J mouse fetuses, as described in Example I-1. After 96-h incubation, axonal length is recorded. Briefly, cells were washed with ice-cold PBS and fixed with cold methanol. Following fixation, cells are immunolabelled using a specific antibody detecting total MAP2 protein. Antibodies to MAP2 are excellent markers on neuronal cells, their axons and neuronal dendrites. For quantification of axonal length, six independent images of labelled cells are captured using an inverted microscope. Pictures of cells are analyzed using Neuron-J software and axonal length is recorded manually. A minimum of 100 independent neurons are treated. The data are expressed as mean axonal length (expressed in μm) (Mean±SD). Statistical differences between vehicle-treated cells and cells treated with compounds are determined using a t-test.

[4] = system: human iPSC-derived neurons challenged with Aβ1-42 oligomers (AβO); experiment: AβO-induced neuronal death in human iPSC-derived neurons, NSE ELISA assay
Experimental: iPSCs were treated at 0 h (T0) with vehicle or 1 μM AβO. Different concentrations of Compound C or 0.1 μM HNG (used as positive control) were added concomitantly to AβO at 0 h (T0), 3 h (T3) or 6 h (T6) after AβO. Then, were incubated for 24 h and cell viability was determined using the NSE ELISA assay (n=6 determinations per condition, 1 independent experiment), Data are represented as % of vehicle control (Mean±SD). […]
To determine whether compound C might rescue neuronal death in human iPSC-derived neurons challenged with Aβ1-42 oligomers (AβO). In this cellular model, AβO induce a dramatic neuronal death that could be monitored by the level of neuronal specific enolase (NSE) using a specific ELISA assay. Compound C will be added at different time points (concomitantly and after AMBO) with the aim to identify rescuing effects.
Cells (HIP-Neuronal progenitors, GlobalStem, Cat #GSC-4312, Lot #20010260) are plated in 96-well plates at a density of 60.000 cells per well and culture. Before experiments, cells are matured for five weeks and kept at 37° C. in a humidified 5% CO2 atmosphere.
Cells are incubated with vehicle or 1 μM AβO in the absence or presence of different concentrations (i.e. 10, 100, 1000 and 10000 nM) of Compound C added concomitantly to AβO (T0), 3 h after AβO (T3), or 6 h after AβO (T6). Cells are incubated for 24 h in a final volume of 100 μL per well. For positive control, cells are treated similarly in the presence of 0.1 μM HNG (i.e. S14G variant of humanin peptide). In addition, neuronal loss is monitored using the detection of neuronal specific enolase (NSE) by ELISA assay according to supplier's recommendations (CloneCloud, Cat #SEA537Hu). A total of three data points per experimental condition will be generated here. […]

[5] = system: mouse primary cortical neurons challenged with Aβ1-42 oligomers (AβO); experiment: AβO-induced neurotoxicity, test item added concomitantly (T0) or 3 h (T3) or 6 h (T6) after AβO, MTT assay; conditions: 0.1 μM HNG added 3 or 6 h after AβO
Experimental: Mouse primary cortical neurons were treated at 0 h (T0) with vehicle or 1 μM AβO, Different concentrations of Compound C or HNG (0.1 μM, used as positive control) were added concomitantly to AβO at 0 h (T0)), 3 h (T3) or 6 h (T6) after AβO. Then, cortical neurons were incubated for 24 h and cell viability was determined using the MTT assay (n=3 determinations per condition, 1 independent experiment). Data are represented as % of vehicle control (Mean±SD). […]
The aim of this study is to determine whether Compound C might present neuroprotective, anti-apoptotic and neuro-rescuing effects in in vitro AβO induced neuron death models. For that purpose, the neuro-protective effects of compound C at six concentrations were investigated using mouse primary cortical neurons challenged with Aβ1-42 oligomers (AβO) Compounds were added at different time points (concomitantly T0 with AβO and T3, or T6 after AβO) with the aim to identify rescuing effects or anti-apoptotic effects.
Cortical neurons from embryonic day 16-17 are prepared from C57Bl6/J mouse fetuses, as described in Example I-1.
Mouse cortical neurons were exposed for 24 h to 1.0 μM AβO. The AβO-induced neurotoxicity was evaluated using the MTT assay. […] (FIG. 4)
The percentage of neuroprotection and anti-apoptosis effects was defined as; (neuron viability of compound C group−neuron viability of toxin treated group)/(100−neuron viability of toxin treated group)×100%. The % of neuroprotection and anti-apoptotic effects of compound C at 1000 nM is 88.7%, 52.0%, 22.3%, at T0, T3, or T6, respectively. (FIG. 4) […]

Compound	Neuroprotection (0.01 μM) [1] [%]	Neuroprotection (0.1 μM) [1] [%]	neuroprotective effect [1]	also measured
CCCCCCCCCCCCCCCCC(=O)O [GG07, Heptadecanoic acid]	27.4	21.4	lost neuroprotective effect	–
CCCCCCCCCCCCCCCCCCC(=O)O [GG09, Nonadecanoic acid]	31.2	25.9	lost neuroprotective effect	–
CCCCCCCCCCCCCCC(=O)O [GG05, Pentadecanoic acid]	21.9	14.0	lost neuroprotective effect	–
CC/C=C\C/C=C\C/C=C\C/C=C\C/C=C\C/C=C\CCC(=O)O [DHA, Docosahexaenoic acid, reference compound]	–	–	–	remaining cell viability ([1]; 0.05 μM DHA, 48 h pre-incubation, then 1 μM AβO 24 h): 82.0±2.6 % of control and 90.9±3.1 % of control
Cc1c(C)c2c(c(C)c1O)CCC(C)(C(=O)O)O2 (stereo not shown) [Trolox]	–	–	–	inhibition of H2O2-induced cell death ([2]; 1 mM Trolox added 48 h before 0.25 mM H2O2): partially inhibited cell death induced by H2O2; inhibition of H2O2-induced cell death ([2]; 1 mM Trolox added at T3 after 0.25 mM H2O2): partially inhibited cell death induced by H2O2
sAPPα: Secreted amyloid precursor protein-α, positive control [reference compound]	–	–	–	neuronal axon outgrowth (mean axonal length) [3]: 264.63±157.51 μm
HNG: S14G variant of humanin peptide, positive control, well-known antiapoptotic peptide (MAPRGFSCLLLLTGEIDLPVKRRA; UniProt Q8IVG9 1-24, looked up, variant S14G) [reference compound]	–	–	–	prevention of AβO-induced cell death ([4]; 0.1 μM HNG added 3 or 6 h after AβO): did not prevent cell death; neuron viability ([4]; 0.1 μM HNG added at T0 with 1 μM AβO, 24 h): 85.3±15.6 % of control and 85.3±5.6 % of control; prevention of AβO-induced cell death [5]: did not prevent cell death
